These results are taken from PubChem BioAssay AID1918995 (Molecular Pharmacology Branch, DTP, NCI, 2023).

This test concerns 324938-238-R-J1-PDC complex spheroid growth, % test/control. The test is described as follows: Anticancer human tumor 324938-238-R-J1-PDC patient-derived bladder carcinoma cell line growth inhibition [AhR]. To be noted: for viability, T/C: stronger effect = lower value. An excerpt:
Multicellular complex tumor spheroid response to aryl hydrocarbon receptor antagonists in combination with a variety of drugs and investigational agents in selected tumor cell lines
The current study was undertaken to assess response to aryl hydrocarbon receptor antagonists in combination with standard-of-care drugs and investigational agents in solid tumor complex spheroid models. Complex spheroids include a stromal component modeled by human endothelial cells (HUVEC) and fibroblasts modeled by human mesenchymal stem cells (MSCs). The concentration ranges selected for each drug and investigational agent were based upon clinically achievable concentrations if the clinical Cmax of the agent was known.
Compounds. The drugs and investigational agents: BAY 2416964 (NSC825713), GNF351 (NSC835774), CH-223191 (NSC835775), CPI-455 (NSC825282), aza-TdCyd (NSC777586), decitabine (NSC127716), belinostat (NSC758774), entinostat (NSC756642), pevonedistat (NSC761192), tazemetostat (NSC777109), talazoparib (NSC765396), olaparib (NSC753686), selinexor (NSC780203), nedisertib (M3814, NSC802822), bortezomib (NSC756655), venetoclax (NSC766270), doxorubicin (NSC123127), elimusertib (BAY189344, NSC800525), ceralasertib (AZD6738, NSC777638), TAK-243 (NSC785004), alisertib (NSC759677), etoposide (NSC141540), topotecan (NSC609699), eribulin (NSC707389), gemcitabine (NSC613327), carboplatin (NSC241240), cisplatin (NSC119875), and SN-38 (NSC673596) were obtained from the National Cancer Institute (NCI) Developmental Therapeutics Program Chemical Repository (32). The FDA-approved anticancer drug set is available from the Developmental Therapeutics Program at https://dtp.cancer.gov/organization/dscb/obtaining/available plates.htm. […] The stock solutions were prepared in dimethyl sulfoxide (DMSO, Sigma-Aldrich, St. Louis, MO, cat. D2650), except for the platinum compounds which were prepared in saline (Quality Biological, Gaithersburg, MD, cat. 114-055-101), at 800-fold the tested concentration and stored at -70 degrees C prior to their use. All drugs and investigational agents were tested over a range starting from a high concentration at or near the clinical Cmax and decreasing in half-log increments. If the clinical Cmax for an agent had not been determined, the highest concentration tested was 10 microM (Table 1).
Cell Culture. All cells were maintained in an incubator at 37 degrees C and 5% CO2 with 95% humidity. The PDC lines were cultured according to standard operating procedures established by the NCI PDMR (https://pdmr.cancer.gov). Briefly, all PDCs were thawed and cultured in Matrigel-coated flasks prepared with a working solution of 1X Ham's F-12 nutrient mix, without supplementation (Invitrogen, Waltham, MA, cat. 11765054), 100 U/mL penicillin-streptomycin (Invitrogen, cat. 15140122), and 2.5% Matrigel (Corning Inc., Corning, NY, cat. 354248) for the first three passages. All PDCs were cultured in complete DMEM/F-12 media containing advanced DMEM/F-12 (Invitrogen, cat. 12634028), 4.9% defined fetal bovine serum, heat inactivated (HyClone Laboratories Inc., Logan, UT, cat. SH30070.03HI), 389 ng/mL hydrocortisone (Sigma-Aldrich, cat. H4001), 9.7 ng/mL human EGF recombinant protein (Invitrogen, cat. PHG0313), 23.4 microg/mL adenine (Sigma-Aldrich, cat. A2786), 97.3 U/mL penicillin-streptomycin (Invitrogen, cat. 15140122), 1.9 mM L-glutamine (Invitrogen, cat. 25030081), and 9.7 microM Y-27632 dihydrochloride (Tocris Bioscience, Bristol, United Kingdom, cat. 1254). The PDCs were cultured in complete DMEM/F12 media without 10 microM Y-27632 dihydrochloride for at least two passages prior to the screen. The established cell lines NCI-H1341 and […] were cultured in DMEM/F-12, HEPES (Invitrogen, cat. 11330032), 5% defined fetal bovine serum (HyClone Laboratories Inc., cat. SH30070.03), ITS premix universal culture supplement [insulin (5 microg/mL), transferrin (5 microg/mL), and selenious acid (5 ng/mL)] […]

The mark [1] stands for this setting: curve of first compound, second compound 0.1 µM.
Where [2] appears, read: curve of first compound, second compound 0.316 µM.
The mark [3] stands for this setting: curve of first compound, second compound 1 µM.
[4] abbreviates: curve of first compound, second compound 3.16 µM.
The mark [5] stands for this setting: curve of first compound, second compound 10 µM.
Where [6] appears, read: second compound 0.1 µM, first compound 0.0316 µM.
Where [7] appears, read: second compound 0.1 µM, first compound 0.1 µM.
[8] abbreviates: second compound 0.1 µM, first compound 0.316 µM.
Setting [9] is: second compound 0.1 µM, first compound 1 µM.
The mark [10] stands for this setting: second compound 0.316 µM, first compound 0.0316 µM.
Where [11] appears, read: second compound 0.316 µM, first compound 0.1 µM.
Where [12] appears, read: second compound 0.316 µM, first compound 0.316 µM.
[13] abbreviates: second compound 0.316 µM, first compound 1 µM.
Setting [14] is: second compound 1 µM, first compound 0.0316 µM.
Where [15] appears, read: second compound 1 µM, first compound 0.1 µM.
[16] abbreviates: second compound 1 µM, first compound 0.316 µM.
The mark [17] stands for this setting: second compound 1 µM, first compound 1 µM.
Setting [18] is: second compound 3.16 µM, first compound 0.0316 µM.
The mark [19] stands for this setting: second compound 3.16 µM, first compound 0.1 µM.
[20] abbreviates: second compound 3.16 µM, first compound 0.316 µM.
The mark [21] stands for this setting: second compound 3.16 µM, first compound 1 µM.
[22] abbreviates: second compound 10 µM, first compound 0.0316 µM.
The mark [23] stands for this setting: second compound 10 µM, first compound 0.1 µM.
Setting [24] is: second compound 10 µM, first compound 0.316 µM.
Setting [25] is: second compound 10 µM, first compound 1 µM.

The structures appear in SMILES notation. Several values for one entry are separate records, joined by “and”; a condition that tells them apart may be missing. Equal entries are not always repeated. Where only a bound is given, the exact number is not on record here.
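Note: spheroids exposed to agents for seven days before viability read.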

As to `CC(C)c1c(-c2ccccc2)nc2c(C#N)c[nH]n2c1=O`, the viability, T/C (commonly the ratio of treated to control) by setting is: (compound 0.0316 µM) 136% and 101% and 102%; (compound 0.1 µM) 74.3% and 108% and 99%; (compound 0.316 µM) 70.3% and 96.4% and 99.4%; (compound 1 µM) 80.5% and 97.2% and 86.3%; (compound 3.16 µM) 181% and 93.4% and 97.5%; (compound 10 µM) 99.3% and 77.3% and 90.8%. Moreover, where the note is “curve of compound”, the IC50 (in general, the concentration at which inhibition is half-maximal) is greater than 10 µM.
Take `CC(CO)NC(=O)c1cc(-c2ccc(Cl)cc2)nn(-c2cnn(C)c2)c1=O` (stereo unspecified): the viability, T/C was 91% [middle of 21 runs] (compound 0.316 µM), 82.4% [middle of 21 runs] (compound 1 µM) and 68.8% [middle of 19 runs] (compound 10 µM). The IC50 (compound alone, run of 07/12/2022) was greater than 10 µM.
As to `COc1ccc([C@@H](O)c2cc(-c3ncnc4cc(N5CCOCC5)ccc34)c(F)cc2Cl)nn1`, the viability, T/C (compound 0.0316 µM) was 109% (2×) and 99.4%; the viability, T/C (compound 0.1 µM) is 115% and 112% and 109%; the viability, T/C (compound 0.316 µM) is 59.1% and 92.5% and 94%; the viability, T/C (compound 1 µM) is 82.9% and 89.8% and 84%; the viability, T/C (compound 3.16 µM) is 59.8% and 80.3% and 73.2%; the viability, T/C (compound 10 µM) is 33.9% and 66% and 60.1%. Further, the IC50 (curve of compound) was 4.38 µM and > 10 µM.
With `Cc1ccccc1N=Nc1ccc(NC(=O)c2ccnn2C)c(C)c1`, the viability, T/C (compound 10 µM) is 79.2% [middle of 20 runs]. Also, the 50% inhibitory concentration (IC50) (compound alone, run of 07/26/2022) was greater than 10 µM.
Consider `Cc1cncc(-c2nc(NCCc3c[nH]c4ccccc34)c3ncn(C(C)C)c3n2)c1`, for which the IC50 (compound alone, run of 07/18/2022) is 5.31 µM [middle of 23 runs].
As for `COc1cccc2c1C(=O)c1c(O)c3c(c(O)c1C2=O)CC(O)(C(=O)CO)CC3OC1CC(N)C(O)C(C)O1` (stereo unspecified) + CC(CO)NC(=O)c1cc(-c2ccc(Cl)cc2)nn(-c2cnn(C)c2)c1=O, the IC50 was less than 0.0316 µM under setting [1]; less than 0.0316 µM under setting [2]; less than 0.0316 µM under setting [3]; less than 0.0316 µM under setting [4]; less than 0.0316 µM under setting [5]. The viability, T/C by setting is: under setting [6], 33.5%; under setting [7], 29.2%; under setting [8], 17.7%; under setting [9], 2.6%; (second compound 0.1 µM, first compound 3.16 µM) 0.09%; (second compound 0.1 µM, first compound 10 µM) 0.19%. Besides, the viability, T/C is 34.6% under setting [10]; 28.6% under setting [11]; 16.8% under setting [12]; 3.87% under setting [13]; 0.08% (second compound 0.316 µM, first compound 3.16 µM); 0.19% (second compound 0.316 µM, first compound 10 µM). The viability, T/C was 32.9% under setting [14]; 30.9% under setting [15]; 15.5% under setting [16]; 1.51% under setting [17]; 0.09% (second compound 1 µM, first compound 3.16 µM); 0.19% (second compound 1 µM, first compound 10 µM). For the same molecule, the viability, T/C was 31% under setting [18]; 36.1% under setting [19]; 19.6% under setting [20]; 1.04% under setting [21]; 0.09% (second compound 3.16 µM, first compound 3.16 µM); 0.68% (second compound 3.16 µM, first compound 10 µM). Further, the viability, T/C by setting is: under setting [22], 39.8%; under setting [23], 35.4%; under setting [24], 16.8%; under setting [25], 0.25%; (second compound 10 µM, first compound 3.16 µM) 0.24%; (second compound 10 µM, first compound 10 µM) 0.29%.
For the molecule `Nc1ncn(C2CC(O)C(CO)O2)c(=O)n1` (stereo unspecified) + CC(CO)NC(=O)c1cc(-c2ccc(Cl)cc2)nn(-c2cnn(C)c2)c1=O, the concentration for half-maximal inhibition (IC50) is greater than 1 µM under setting [1]; greater than 1 µM under setting [2]; greater than 1 µM under setting [3]; greater than 1 µM under setting [4]; greater than 1 µM under setting [5]. Besides, the viability, T/C (second compound 0.1 µM, first compound 0.00316 µM) is 98.5%; the viability, T/C (second compound 0.1 µM, first compound 0.01 µM) is 97.5%; the viability, T/C under setting [6] was 93.4%; the viability, T/C under setting [7] is 73.4%; the viability, T/C under setting [8] is 81.7%; the viability, T/C under setting [9] is 72.3%. The viability, T/C runs as follows: (second compound 0.316 µM, first compound 0.00316 µM) 98.4%; (second compound 0.316 µM, first compound 0.01 µM) 102%; under setting [10], 97.5%; under setting [11], 82.9%; under setting [12], 80.2%; under setting [13], 64.8%. Further, the viability, T/C runs as follows: (second compound 1 µM, first compound 0.00316 µM) 85.9%; (second compound 1 µM, first compound 0.01 µM) 91.3%; under setting [14], 82.8%; under setting [15], 72.2%; under setting [16], 68.3%; under setting [17], 61.5%. Besides, the viability, T/C is, setting by setting: (second compound 3.16 µM, first compound 0.00316 µM) 72.4%; (second compound 3.16 µM, first compound 0.01 µM) 72.5%; under setting [18], 64.1%; under setting [19], 60.4%; under setting [20], 64.4%; under setting [21], 57.6%. Further, the viability, T/C is, setting by setting: (second compound 10 µM, first compound 0.00316 µM) 61.4%; (second compound 10 µM, first compound 0.01 µM) 67.9%; under setting [22], 65.8%; under setting [23], 55.9%; under setting [24], 58.3%; under setting [25], 57.8%.
